In the oligonucleotide strings, read from the 5' end, every base follows the letter of its sugar. An asterisk marks phosphorothioate; unmarked linkages are phosphodiester. Other units and linkages are bracketed, terminal groups are in braces. A string of capitals states the bases alone. d = 2'-deoxy (DNA); m = 2'-O-methyl; r = 2'-OH (RNA)
Tested on: PCSK9 mRNA
Assay: PCSK9 siRNA screening in HepG2 cells (lipofectamine 2000 transfection, PCSK9 mRNA by Quantigene, normalized to GAP-DH)
Type: cell-based, human
Settings: for Mean percent remaining mRNA transcript at siRNA concentration/in cell type 30 nM/HepG2: 30 nM siRNA; for Mean percent remaining mRNA transcript at siRNA concentration/in cell type 3 nM/HepG2: 3 nM siRNA; for Mean percent remaining mRNA transcript at siRNA concentration/in cell type 100 nM/HepG2: 100 nM siRNA
Description: HuH-7 cells were obtained from JCRB Cell Bank (Japanese Collection of Research Bioresources) (Shinjuku, Japan, cat. No.: JCRB0403) Cells were cultured in Dulbecco's MEM (Biochrom AG, Berlin, Germany, cat. No. F0435) supplemented to contain 10% fetal calf serum (FCS) (Biochrom AG, Berlin, Germany, cat. No. S0115), Penicillin 100 U/ml, Streptomycin 100 μg/ml (Biochrom AG, Berlin, Germany, cat. No. A2213) and 2 mM L-Glutamin (Biochrom AG, Berlin, Germany, cat. No K0282) at 37° C. in an atmosphere with 5% CO2 in a humidified incubator (Heraeus HERAcell, Kendro Laboratory Products, Langenselbold, Germany) HepG2 and HeLa cells were obtained from American Type Culture Collection (Rockville, Md., cat. No. HB-8065) and cultured in MEM (Gibco Invitrogen, Karlsruhe, Germany, cat. No. 21090-022) supplemented to contain 10% fetal calf serum (FCS) (Biochrom AG, Berlin, Germany, cat. No. S0115), Penicillin 100 U/ml, Streptomycin 100 μg/ml (Biochrom AG, Berlin, Germany, cat. No. A2213), 1× Non Essential Amino Acids (Biochrom AG, Berlin, Germany, cat. No. K-0293), and 1 mM Sodium Pyruvate (Biochrom AG, Berlin, Germany, cat. No. L-0473) at 37° C. in an atmosphere with 5% CO2 in a humidified incubator (Heraeus HERAcell, Kendro Laboratory Products, Langenselbold, Germany).
For transfection with siRNA, HuH7, HepG2, or HeLa cells were seeded at a density of 2.0×10^4 cells/well in 96-well plates and transfected directly. Transfection of siRNA (30 nM for single dose screen) was carried out with lipofectamine 2000 (Invitrogen GmbH, Karlsruhe, Germany, cat. No. 11668-019) as described by the manufacturer.
24 hours after transfection HuH7 and HepG2 cells were lysed and PCSK9 mRNA levels were quantified with the Quantigene Explore Kit (Genosprectra, Dumbarton Circle Fremont, USA, cat. No. QG-000-02) according to the protocol. PCSK9 mRNA levels were normalized to GAP-DH mRNA. For each siRNA eight individual datapoints were collected. siRNA duplexes unrelated to PCSK9 gene were used as control. The activity of a given PCSK9 specific siRNA duplex was expressed as percent PCSK9 mRNA concentration in treated cells relative to PCSK9 mRNA concentration in cells treated with the control siRNA duplex.
Tables 1b and 2b (and FIG. 6A) summarize the results and provide examples of in vitro screens in different cell lines at different doses. Silencing of PCSK9 transcript was expressed as percentage of remaining transcript at a given dose.
Very active sequences are those that have less than 60% of transcript remaining after treatment with a dose less than or equal to 100 nM. Active sequences are those that have less than 90% transcript remaining after treatment with a high dose (100 nM).

| Substance | Mean percent remaining mRNA transcript at siRNA concentration/in cell type 30 nM/HepG2 [%] | further results |
| --- | --- | --- |
| AD-9677: PCSK9 siRNA (sense UGGCGGGUGGGUACAGCCGTT; antisense CGGCUGUACCCACCCGCCATT; chemistry not given here) | 62 |  |
| AD-9653: PCSK9 siRNA (sense rGmCmCrArAmCmCmCrGmCmUmCmCrAmCmUrAmCmCdT*dT; antisense rGrGmUrArGrUrGrGrArGrCrGrGrGrUrUrGrGrCdT*dT) | 86 |  |
| AD-9543: PCSK9 siRNA (sense rCrGrCrGrUrGrCrUrCrArArCrUrGrCrCrArArGdT*dT; antisense rCrUrUrGrGrCrArGrUrUrGrArGrCrArCrGrCrGdT*dT) | 51 |  |
| AD-9576: PCSK9 siRNA (sense rGrCrArGrArGrArCrUrGrArUrCrCrArCrUrUrCdT*dT; antisense rGrArArGrUrGrGrArUrCrArGrUrCrUrCrUrGrCdT*dT) | 47 |  |
| AD-9595: PCSK9 siRNA (sense rCrUrGrArGrGrArCrCrArGrCrGrGrGrUrArCrUdT*dT; antisense rArGrUrArCrCrCrGrCrUrGrGrUrCrCrUrCrArGdT*dT) | 31 | Mean percent remaining mRNA transcript at siRNA concentration/in cell type 3 nM/HepG2: 32% |
| AD-9540: PCSK9 siRNA (sense rArGrArGrUrGrArCrCrArCrCrGrGrGrArArArUdT*dT; antisense rArUrUrUrCrCrCrGrGrUrGrGrUrCrArCrUrCrUdT*dT) | 45 |  |
| AD-9548: PCSK9 siRNA (sense rGrCrArGrUrCrArGrArGrCrGrCrArCrUrGrCrCdT*dT; antisense rGrGrCrArGrUrGrCrGrCrUrCrUrGrArCrUrGrCdT*dT) | 54 | Mean percent remaining mRNA transcript at siRNA concentration/in cell type 3 nM/HepG2: 60% |
| AD-9566: PCSK9 siRNA (sense rUrGrCrCrGrGrGrCrCrCrArCrArArCrGrCrUrUdT*dT; antisense rArArGrCrGrUrUrGrUrGrGrGrCrCrCrGrGrCrAdT*dT) | 38 |  |
| AD-9695: PCSK9 siRNA (sense rArGmCmUmCmCmUrGmCrAmCrArGmUmCmCmUmCmCdT*dT; antisense rGrGrArGrGrArCrUrGrUrGmCrArGrGrArGrCrUdT*dT) | 102 |  |
| AD-9549: PCSK9 siRNA (sense rGrGrGrCrCrCrArCrArArCrGrCrUrUrUrUrGrGdT*dT; antisense rCrCrArArArArGrCrGrUrUrGrUrGrGrGrCrCrCdT*dT) | 50 |  |
| AD-9559: PCSK9 siRNA (sense rGrUrGrArCrCrArCrCrGrGrGrArArArUrCrGrAdT*dT; antisense rUrCrGrArUrUrUrCrCrCrGrGrUrGrGrUrCrArCdT*dT) | 35 |  |
| AD-9634: PCSK9 siRNA (sense rCrUrCrUrGrUrUrGrCrCrUrUrUrUrUrArCrArGdT*dT; antisense rCrUrGrUrArArArArArGrGrCrArArCrArGrArGdT*dT) | 29 | Mean percent remaining mRNA transcript at siRNA concentration/in cell type 3 nM/HepG2: 30% |
| AD-9676: PCSK9 siRNA (sense rGrArGrGrGmUrGmUmCmUrAmCrGmCmCrAmUmUrGdT*dT; antisense mCrArArUrGrGrCrGmUrArGrAmCrArCrCrCrUrCdT*dT) | 100 |  |
| AD-9734: PCSK9 siRNA (sense mUrGmCmUrArGmCmCmUmUrGmCrGmUmUmCmCrGrAdT*dT; antisense rUrCrGrGrArArCrGmCrArArGrGrCmUrArGmCrAdT*dT) | 91 |  |
| AD-9709: PCSK9 siRNA (sense mCmCmCrAmUrGmUmCrGrAmCmUrAmCrAmUmCrGrAdT*dT; antisense rUrCrGrArUrGmUrArGrUrCrGrAmCrArUrGrGrGdT*dT) | 104 |  |
| AD-9597: PCSK9 siRNA (sense rArGrCrCrArArGrCrCrUrCrUrUrCrUrUrArCrUdT*dT; antisense rArGrUrArArGrArArGrArGrGrCrUrUrGrGrCrUdT*dT) | 23 | IC50: 0.04 nM; Mean percent remaining mRNA transcript at siRNA concentration/in cell type 3 nM/HepG2: 21% |
| AD-9763: PCSK9 siRNA (sense rGrArGrGrGmCrArGrGrGmUmCrAmUrGrGmUmCrAdT*dT; antisense rUrGrArCmCrArUrGrArCrCrCrUrGrCrCrCrUrCdT*dT) | 79 |  |
| AD-9660: PCSK9 siRNA (sense rGrGrAmCrGrAmUrGmCmCmUrGmCmCmUmCmUrAmCdT*dT; antisense rGmUrArGrArGrGmCrArGrGmCrArUrCrGrUrCrCdT*dT) | 89 | Mean percent remaining mRNA transcript at siRNA concentration/in cell type 3 nM/HepG2: 79% |
| AD-9670: PCSK9 siRNA (sense mUrGrArGrGrAmCmCrArGmCrGrGrGmUrAmCmUrGdT*dT; antisense mCrArGmUrArCrCrCrGrCrUrGrGrUrCrCrUmCrAdT*dT) | 67 |  |
| AD-9537: PCSK9 siRNA (sense rArCrGrGrUrArCrCrGrGrGrCrGrGrArUrGrArAdT*dT; antisense rUrUrCrArUrCrCrGrCrCrCrGrGrUrArCrCrGrUdT*dT) | 145 |  |
| AD-9326: PCSK9 siRNA (sense rGrCrArCrCrCrUrCrArUrArGrGrCrCrUrGrGrAdT*dT; antisense rUrCrCrArGrGrCrCrUrArUrGrArGrGrGrUrGrCdT*dT) | 35 | Mean percent remaining mRNA transcript at siRNA concentration/in cell type 3 nM/HepG2: 51% |
| AD-9742: PCSK9 siRNA (sense rArGmCrAmCmCmUrGmCmUmUmUrGmUrGmUmCrAmCdT*dT; antisense rGrUrGrAmCrAmCrArArArGmCrArGrGrUrGrCrUdT*dT) | 127 |  |
| AD-9756: PCSK9 siRNA (sense rGrGrGmCrArGrGrGmUmCrAmUrGrGmUmCrAmCmCdT*dT; antisense rGrGrUrGrArCmCrArUrGrArCrCrCrUrGrCrCrCdT*dT) | 63 |  |
| AD-9589: PCSK9 siRNA (sense rCrArCrCrGrCrUrGrCrCrGrGrCrArArCrUrUrCdT*dT; antisense rGrArArGrUrUrGrCrCrGrGrCrArGrCrGrGrUrGdT*dT) | 85 | Mean percent remaining mRNA transcript at siRNA concentration/in cell type 100 nM/HepG2: 67% |
| AD-9582: PCSK9 siRNA (sense rCrCrArGrCrArUrCrCrArCrGrCrUrUrCrCrUrGdT*dT; antisense rCrArGrGrArArGrCrGrUrGrGrArUrGrCrUrGrGdT*dT) | 37 |  |
| AD-9324: PCSK9 siRNA (sense rGrCrCrArUrCrUrGrCrUrGrCrCrGrGrArGrCrCdT*dT; antisense rGrGrCrUrCrCrGrGrCrArGrCrArGrArUrGrGrCdT*dT) | 59 | Mean percent remaining mRNA transcript at siRNA concentration/in cell type 3 nM/HepG2: 67% |
| AD-9619: PCSK9 siRNA (sense rUrCrArGrGrArGrCrCrGrGrGrArCrGrUrCrArGdT*dT; antisense rCrUrGrArCrGrUrCrCrCrGrGrCrUrCrCrUrGrAdT*dT) | 61 | Mean percent remaining mRNA transcript at siRNA concentration/in cell type 100 nM/HepG2: 42% |
| AD-9738: PCSK9 siRNA (sense rAmCmCrAmCmCrGrGrGrArArAmUmCrGrArGrGrGdT*dT; antisense rCrCrCrUrCrGrArUrUrUrCrCrCrGrGrUrGrGrUdT*dT) | 83 |  |
| AD-9690: PCSK9 siRNA (sense mUmCrAmUmUrGrGmUrGmCmCmUmCmCrArGmCrGrAdT*dT; antisense rUrCrGrCrUrGrGrArGrGmCrArCmCrArArUrGrAdT*dT) | 92 |  |
| AD-9724: PCSK9 siRNA (sense mCmCmUrGrGmUrGrGrArGrGmUrGmUrAmUmCmUmCdT*dT; antisense rGrArGrAmUrAmCrArCrCrUrCmCrArCmCrArGrGdT*dT) | 127 |  |

— patent US20120016009A1, “Optimized Methods For Delivery Of DSRNA Targeting The PCSK9 Gene” (priority 2008, published 2012)
